Test results reported in patent publication US6200999A, “3-Alkoxyisoxazol-4-yl-substituted 2-amino carboxylic acid compounds” (H. Lundbeck A/S, priority 1996, dated 2001).
Where a name gives a salt, the structure may show the parent alone.

Key:
AMPA receptors = conditions: literature; cited from earlier work
[1] = literature; cited from earlier work
animals = conditions: literature; cited from earlier work
AMPA receptor = assay: Cortical wedge model, AMPA receptor (rat brain slices in vitro); format: cell-based; conditions: receptor subtype AMPA; for EC50: agonists
Description: (§1) The Cortical wedge model is a test in which slices of rat brain is examined in vitro in order to quantify the effect of ligands at the various Glu-receptors and evaluate the pharmacological profile of the ligands (i.e. agonist/antagonist properties). The test was performed as described by Harrison, N. L. and Simmonds, M. A. Br.J.Pharmacol. 1985, 84, 381-391 as modified according to Wheatley, P. L. Br.J.Pharmacol. 1986, 87, 159P.

NMDA receptor = assay: Cortical wedge model, NMDA receptor (rat brain slices in vitro); format: cell-based; conditions: receptor subtype NMDA; for pKi: antagonist
Description: as §1

Profile (AMPA receptor) | EC50 (AMPA receptor) [µM] | SMILES | also measured
– | – | Cc1onc(C(=O)O)c1CC(N)C(=O)O (racemic) [ACPA] | agonist effects at AMPA receptors (AMPA receptors): potent AMPA receptor agonist
– | – | Cc1onc(O)c1CC(N)C(=O)O (racemic) [AMPA, (RS)-2-amino-3-(3-hydroxy-5-methylisoxazol-4-yl)propionic acid] | agonist effects at AMPA receptors (AMPA receptors): selective agonist effects at AMPA receptors
– | – | NC(Cc1c(O)noc1-c1ccccc1)C(=O)O (racemic) [APPA, (RS)-2-Amino-3-(3-hydroxy-5-phenylisoxazol-4-yl)propionic acid] | agonist effects at AMPA receptors (AMPA receptors): weak but unique partial agonist profile
– | – | CC(C)(C)c1onc(O)c1CC(N)C(=O)O (racemic) [ATPA] | systemic activity [1]: systemically active; neurotoxic effects (animals): has not been reported to show neurotoxic effects in animals
Agonist | 1.2 | COc1noc(C(=O)O)c1CC(N)C(=O)O.O (racemic) [Compound 1, (RS)-2-Amino-3-(5-carboxy-3-methoxyisoxazol-4-yl)propionic Acid Hydrate] | –
Agonist | 4.8 | CCOc1noc(C(=O)O)c1CC(N)C(=O)O (racemic) [Compound 2, (RS)-2-Amino-3-(5-carboxy-3-ethoxyisoxazol-4-yl)propionic Acid] | –
Agonist | 40 | CC(C)Oc1noc(C(=O)O)c1CC(N)C(=O)O (racemic) [Compound 3, (RS)-2-Amino-3-(5-carboxy-3-isopropoxyisoxazol-4-yl)propionic Acid] | –
Agonist | 2000 | CCOc1noc(-c2nnn[nH]2)c1CC(N)C(=O)O (racemic) [Compound 8, (RS)-2-Amino-3-[3-ethoxy-5-(5-tetrazolyl)isoxazol-4-yl]propionic acid] | –
Agonist | 80 | CCCOc1noc(C(=O)O)c1CC(N)C(=O)O (racemic) [Compound 10, (RS)-2-Amino-3-(3-propoxy-5-carboxyisoxazol-4-yl)propionic Acid] | –
Agonist | 40 | C=CCOc1noc(C(=O)O)c1CC(N)C(=O)O (racemic) [Compound 12, (RS)-2-Amino-3-(3-allyloxy-5-carboxyisoxazol-4-yl)propionic Acid] | –
– | – | NC(Cc1c(C(=O)O)on(Cc2ccccc2)c1=O)C(=O)O (racemic) [Compound 13, (RS)-2-Amino-3-(2-benzyl-5-carboxy-2,3-dihydro-3oxisoxazol-4-yl)propionic Acid, Hydrochloride, Monohydrate] | Profile (NMDA receptor): Antagonist; pKi (NMDA receptor): 3.5
Antagonist | – | CCOc1noc(C(=O)O)c1C[C@@H](N)C(=O)O [(R)-2, (R)-2-Amino-3-(5-carboxy-3-ethoxyisoxazol-4-yl)propionic Acid] | pKi (AMPA receptor; antagonist): 3.28
Agonist | 4.4 | CCOc1noc(C(=O)O)c1C[C@H](N)C(=O)O [(S)-2, (S)-2-Amino-3-(5-carboxy-3-ethoxyisoxazol-4-yl)propionic Acid] | –
– | – | CCOc1noc(C(=O)O)c1CNc1c(N)c(=O)c1=O [Compound 17, [4-(2-Amino-3,4-dioxocyclobut-1-en-1-yl)aminomethyl]-3-ethoxyisoxazole-5-carboxylic Acid] | Profile (NMDA receptor): Antagonist; pKi (NMDA receptor): 3.3

SMILES | Profile (AMPA receptor) | EC50 (AMPA receptor) [µM] | also measured
CCCCOc1noc(C(=O)O)c1CC(N)C(=O)O (racemic) [Compound 11, (RS)-2-Amino-3-(3-butoxy-5-carboxisoxazol-4-yl)propionic Acid] | Part. Agonist | 325 | –
